Laboratory results from ChEMBL document CHEMBL6096646, “Sulfonamide-derivatized galactosides selectively target an unexplored binding site in the galectin-9N-terminal domain” (Bioorg Med Chem, 2024).

Target: Galectin-7 (Homo sapiens, UniProt P47929)
Assay: Binding affinity to human Galectin-7 assessed as dissociation constant by competitive fluorescence polarization assay

Sequence of Galectin-7 (P47929 whole entry): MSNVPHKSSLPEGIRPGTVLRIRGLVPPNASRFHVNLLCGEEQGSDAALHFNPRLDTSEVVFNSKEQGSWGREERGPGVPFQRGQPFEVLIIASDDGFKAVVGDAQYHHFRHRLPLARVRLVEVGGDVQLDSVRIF

SMILES	Kd [µM]
O=S(=O)(Nc1ccccc1-c1cn([C@@H]2[C@@H](O)[C@@H](Sc3ccc(Cl)c(Cl)c3)O[C@H](CO)[C@@H]2O)nn1)c1cc(C(F)(F)F)cc(C(F)(F)F)c1	> 600
CO[C@H]1O[C@H](CO)[C@H](O)[C@H](n2cc(-c3ccccc3NS(=O)(=O)c3cc(C(F)(F)F)cc(C(F)(F)F)c3)nn2)[C@H]1O	> 1000
